Patent US20100034757A1, “EXTRACT POWDER OF INDIGO PLANT, AND ITS PREPARATION AND USES” (priority 2006, published 2010)
Values after ≈ are worked out from the molar mass of the structure shown. Like-named read-outs stand apart in the source and are kept apart here. Each block holds one molecule with its values, some of them ahead of it.

How the values were obtained:
[1] = test system: mouse melanoma B16 cells; assay: Influence of extract powder and other skin-whitening ingredients on melanin formation (Test 2 for in vitro skin-whitening effect, Experiment 4); format: cell-based; set-up: Judgement, 1.25% extract powder of indigo plant: key to the marks not given beside the values; conditions: 72 hours
Procedure: The following experiment was conducted to examine the influence of an extract powder of indigo plant and other ingredients with skin-whitening action on melanin formation. Mouse melanoma B16 cells were cultured for 24 hours, and to the resulting culture was added any one of the test solutions to give a composition ratio (%) of each of […], followed by culturing for 72 hours. The viable cells were counted and packed into a capillary tube for color observation. The judgement of the effects was evaluated based on the same criterion as in Experiment 1. In this experiment system, the effect in the case of culturing the cells with addition of 0.025% of the extract powder of indigo extract was judged to be “+”.

[2] = test system: P. intermedia; assay: Minimum inhibitory concentration (MIC), Experiment 13; format: cell-based; conditions: Prevotella intermedia, read-out: Minimum inhibitory concentration (MIC)
Procedure: (§1) The following experiment was conducted to examine the influence of an extract powder of indigo plant on microorganisms in human oral cavity. An extract powder of indigo plant, prepared by the method in the later described Example 1, was dissolved in refined water to obtain an aqueous solution with a concentration of 1.5% indigo plant extract, d.s.b. Using the aqueous solution, the minimum inhibitory concentration (may be designated as “MIC”, hereinafter) against microorganisms in human oral cavity (microorganisms as causatives of periodontal diseases and dental caries) was determined. Tryptanthrin, gallic acid, and caffeic acid, which had been confirmed to be contained in the indigo extract, were determined for MIC against microorganisms in human oral cavity, and the data was shown in Table 9 in parallel. The following method was used for assaying MIC.
(§2) The MICs of an extract powder of indigo plant, tryptanthrin, gallic acid, and caffeic acid against microorganisms in human oral cavity were determined according to the standard method of Japanese Society of Chemotherapy (see “Saikin-Shinkin-Kensa (Test for Bacteria and Fungi), 2nd Edition”, pp. 524-529 (1982)). Examples of microorganisms, used as causatives of periodontal diseases, were microorganisms of Prophyromonas gingivalis strains such as JCM8525, JCM12257, and ATCC 33277 strains; those of Actinobacillus actinomycetemcomitans (may be abbreviated as “A. actinomycetemcomitans”) such as JCM2434 and JCM8577 strains; Prevotella intermedia (may be abbreviated as P. intermedia) JCM7365 strain; and Campylobacter rectus (may be abbreviated as C. rectus) JMC6301 strain. Examples of microorganisms, used as causatives of dental caries, were Streptococcus mutans strains such as OMZ-175, OMZ-176, OMZ-65, OMZ-61, B-13D, and Ingbritt strains; and Streptococcus sobrinus (may be abbreviated as “S. sobrinus”) 6715 strain. Among these microorganisms, those which are causatives of periodontal diseases were cultured at 37° C. for 48 hours, while those which are causatives of dental caries were cultured at 37° C. for 18 to 24 hours under anaerobic conditions by using a brain heart infusion (abbreviated as “BHI”, hereinafter), commercialized by Difco Laboratories, Detroit, USA, supplemented with 5 μg/ml of hemin, and 0.5 μg/ml of vitamin K3. The resulting cultures of the microorganisms, as causatives of both periodontal diseases and dental caries, were respectively diluted into solutions with 10^8 cells and 10^6 cells.

[3] = test system: C. rectus; assay: as above; format: cell-based; conditions: Campylobacter rectus, read-out: Minimum inhibitory concentration (MIC)
Procedure: as §1, §2

[4] = test system: S. sobrinus; assay: as above; format: cell-based; conditions: Streptococcus sobrinus, read-out: Minimum inhibitory concentration (MIC)
Procedure: as §1, §2

[5] = test system: S. mutans; assay: as above; format: cell-based; conditions: Streptococcus mutans
Procedure: as §1, §2

[6] = test system: P. gingivalis; assay: as above; format: cell-based, Prophyromonas gingivalis; conditions: for MIC: Porphyromonas gingivalis
Procedure: as §1, §2

[7] = test system: A. actinomycetemcomitans; assay: as above; format: cell-based, Actinobacillus actinomycetemcomitans; conditions: for MIC: Aggregatibacter actinomycetemcomitans, read-out: Minimum inhibitory concentration (MIC)
Procedure: as §1, §2

[8] = test system: mouse melanoma B16 cells; assay: Influence on melanin formation, blackening of cells (Test 1 for in vitro whitening effect, Experiment 3); format: cell-based; conditions: medium containing 2.5 mM; cultured 72 hours
Procedure: Using a dried leaf of Polygonum tinctorium Lour., Japanese knotweed, buckwheat, or knotgrass as a plant of the family Polygonaceae, extract powders of which were prepared. The extract powders of indigo plant were prepared by the method in later described Example 2. According to the same method as in Example 2, using a dried leaf of Japanese knotweed, buckwheat, or knotgrass in place of the one of Polygonum tinctorium Lour., extract powders of the above plants were prepared for use in the following experiment, where, as an extract powder of indigo plant, the one prepared by the method in later described Example 2 was used, unless specified otherwise. […] After counting the number of viable cells, the viable cells were packed into a capillary tube for color observation. […] The degree of blackening of the B16 cells was evaluated based on the following criterion, and the results are in Table 3. Evaluations with Reference to the Blackening Degree of Control Free of Agent: −: Unchanged; ±: Slight inhibition of blackening; +: Positive inhibition of blackening; ++: Clear inhibition of blackening; +++: Complete inhibition of blackening.

[9] = ingredient 0.5% in combination with extract powder of indigo plant
[10] = ingredient 1.0% in combination with extract powder of indigo plant
[11] = strain B-13D, read-out: Minimum inhibitory concentration (MIC)
[12] = strain Ingbritt, read-out: Minimum inhibitory concentration (MIC)
[13] = strain OMZ-61, read-out: Minimum inhibitory concentration (MIC)
[14] = strain OMZ-65, read-out: Minimum inhibitory concentration (MIC)
[15] = strain OMZ-175, read-out: Minimum inhibitory concentration (MIC)
[16] = strain OMZ-176, read-out: Minimum inhibitory concentration (MIC)
[17] = strain JMC12257, read-out: Minimum inhibitory concentration (MIC)

SMILES: O=c1oc2c(O)c(O)cc3c(=O)oc4c(O)c(O)cc1c4c23 [Ellagic acid]
- Judgement, With no extract powder of indigo plant ([1]; composition ratio 0.5%): ±
- Judgement, 1.25% extract powder of indigo plant [1, 9]: ++

SMILES: NC[C@H]1CC[C@H](C(=O)O)CC1 [Tranexamic acid]
- Judgement, With no extract powder of indigo plant ([1]; composition ratio 1.0%): ±
- Judgement, 1.25% extract powder of indigo plant [1, 10]: ++

- MIC ([2]; strain JMC7365): 400 µg/mL (≈ 2350 µM)
- MIC ([3]; strain JMC6301): 400 µg/mL (≈ 2350 µM)
- MIC ([4]; strain 6715): 800 µg/mL (≈ 4700 µM)
- MIC [5, 11]: 200 µg/mL (≈ 1180 µM)
- MIC [5, 12]: 1600 µg/mL (≈ 9410 µM)
- MIC [5, 13]: 200 µg/mL (≈ 1180 µM)
- MIC [5, 14]: 1600 µg/mL (≈ 9410 µM)
- MIC [5, 15]: 400 µg/mL (≈ 2350 µM)
- MIC [5, 16]: 400 µg/mL (≈ 2350 µM)
- MIC [6, 17]: 400 µg/mL (≈ 2350 µM)
- Minimum inhibitory concentration (MIC) ([6]; strain JCM8525): 400 µg/mL (≈ 2350 µM)
- Minimum inhibitory concentration (MIC) ([6]; strain JMC33277): 400 µg/mL (≈ 2350 µM)
- MIC ([7]; strain JMC2434): 800 µg/mL (≈ 4700 µM)
- MIC ([7]; strain JMC8577): 800 µg/mL (≈ 4700 µM)
SMILES: O=C(O)c1cc(O)c(O)c(O)c1 [Gallic acid]

- MIC ([2]; strain JMC7365): 400 µg/mL (≈ 2220 µM)
- MIC ([3]; strain JMC6301): 100 µg/mL (≈ 555 µM)
- MIC ([4]; strain 6715): 800 µg/mL (≈ 4440 µM)
- MIC [5, 11]: 200 µg/mL (≈ 1110 µM)
- MIC [5, 12]: 1600 µg/mL (≈ 8880 µM)
- MIC [5, 13]: 400 µg/mL (≈ 2220 µM)
- MIC [5, 14]: 200 µg/mL (≈ 1110 µM)
- MIC [5, 15]: 400 µg/mL (≈ 2220 µM)
- MIC [5, 16]: 800 µg/mL (≈ 4440 µM)
- MIC [6, 17]: 400 µg/mL (≈ 2220 µM)
- Minimum inhibitory concentration (MIC) ([6]; strain JCM8525): 400 µg/mL (≈ 2220 µM)
- Minimum inhibitory concentration (MIC) ([6]; strain JMC33277): 400 µg/mL (≈ 2220 µM)
- MIC ([7]; strain JMC2434): 400 µg/mL (≈ 2220 µM)
- MIC ([7]; strain JMC8577): 200 µg/mL (≈ 1110 µM)
SMILES: O=C(O)/C=C/c1ccc(O)c(O)c1 [Caffeic acid]

SMILES: CCCCc1ccc(O)cc1O [4-n-Butylresorcinol]
- Judgement, With no extract powder of indigo plant ([1]; composition ratio 0.5%): +
- Judgement, 1.25% extract powder of indigo plant [1, 9]: +++

SMILES: O=C1c2ccccc2-n2c1nc1ccccc1c2=O [Tryptanthrin]
- MIC [2]: 6.25 µg/mL (≈ 25.2 µM)
- MIC [3]: 25 µg/mL (≈ 101 µM)
- MIC [4]: 25 µg/mL (≈ 101 µM)
- MIC ([5]; read-out: Minimum inhibitory concentration (MIC), strain B-13D): 6.25 µg/mL (≈ 25.2 µM)
- MIC ([5]; read-out: Minimum inhibitory concentration (MIC), strain Ingbritt): 25 µg/mL (≈ 101 µM)
- MIC ([5]; read-out: Minimum inhibitory concentration (MIC), strain OMZ-61): 6.25 µg/mL (≈ 25.2 µM)
- MIC ([5]; read-out: Minimum inhibitory concentration (MIC), strain OMZ-65): 12.5 µg/mL (≈ 50.4 µM)
- MIC ([5]; read-out: Minimum inhibitory concentration (MIC), strain OMZ-175): 6.25 µg/mL (≈ 25.2 µM)
- MIC ([5]; read-out: Minimum inhibitory concentration (MIC), strain OMZ-176): 12.5 µg/mL (≈ 50.4 µM)
- MIC ([6]; read-out: Minimum inhibitory concentration (MIC), strain JMC8525): 6.25 µg/mL (≈ 25.2 µM)
- MIC ([6]; read-out: Minimum inhibitory concentration (MIC), strain JMC12257): 12.5 µg/mL (≈ 50.4 µM)
- MIC ([6]; read-out: Minimum inhibitory concentration (MIC), strain JMC33277): 12.5 µg/mL (≈ 50.4 µM)
- MIC [7]: 25 µg/mL (≈ 101 µM)
- Minimum inhibitory concentration (MIC) ([7]; strain JMC2434): 25 µg/mL (≈ 101 µM)

SMILES: O=c1cc(CO)occ1O [Kojic acid]
- Judgement (inhibition of blackening of B16 cells) [8]: +
- Judgement, With no extract powder of indigo plant ([1]; composition ratio 1.0%): +
- Judgement, 1.25% extract powder of indigo plant [1, 10]: +++

SMILES: CCCCC/C=C\C/C=C\CCCCCCCC(=O)O [Linoleic acid]
- Judgement, With no extract powder of indigo plant ([1]; composition ratio 0.5%): ±
- Judgement, 1.25% extract powder of indigo plant [1, 9]: ++

SMILES: COc1cc(CCC(=O)CC(=O)CCc2ccc(O)c(OC)c2)ccc1O [Tetrahydrocurcumin]
- Judgement, With no extract powder of indigo plant ([1]; composition ratio 0.5%): ±
- Judgement, 1.25% extract powder of indigo plant [1, 9]: ++

SMILES: COc1ccc(C(=O)[O-])c(O)c1.[K+] [4-Methoxysalicylic acid potassium salt]
- Judgement, With no extract powder of indigo plant ([1]; composition ratio 1.0%): +
- Judgement, 1.25% extract powder of indigo plant [1, 10]: +++

SMILES: OC[C@H]1O[C@@H](Oc2ccc(O)cc2)[C@H](O)[C@@H](O)[C@@H]1O [Arbutin]
- Judgement, With no extract powder of indigo plant ([1]; composition ratio 0.5%): +
- Judgement, 1.25% extract powder of indigo plant [1, 9]: +++

SMILES: O=C1O[C@H]([C@@H](O)CO)C([O-])=C1O.[Na+] [Sodium L-ascorbate]
- Judgement, With no extract powder of indigo plant ([1]; composition ratio 2.0%): +
- Judgement, 1.25% extract powder of indigo plant ([1]; ingredient 2.0% in combination with extract powder of indigo plant): +++
